Test results: patent US6914045B2, “Glycopeptide antibiotics” (Wyeth Holdings Corporation, priority 2001, dated 2005)
In brackets after ≈: the same amount, converted by molar mass.

How the values were obtained:
Test in all cases: in vitro antibacterial evaluation, MIC by broth dilution
Format in all cases: cell-based
Enterococcus sp. = details: broth dilution, 18 hours at 35° C.
How it was run: (§1)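 Following National Committee for Clinical Laboratory Standards recommendations (M7-A2), susceptibility was measured by dilution in Muller-Hinton II […]. Bacteria were seeded at 5×10^5 CFU/mL against compound concentrations from 64 down to 0.06 μg/mL.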

Staphylococcus sp. = details: broth dilution, 18 hours at 35° C.
How it was run: as §1

Streptococcus sp. = details: broth dilution, 18 hours at 35° C.
How it was run: as §1

Escherichia coli = details: 18 hours at 35° C.

## COc1ccc2cc(COC3C(OC4C(CO)OC(Oc5ccc(CC6NC(=O)C(C(C)c7ccccc7)NC(=O)CNC(=O)C(CO)NC(=O)C(C(O)C7CNC(=N)N7C7OC(CO)C(O)C(O)C7O)NC(=O)C(C(O)C7CNC(=N)N7)NC6=O)cc5)C(O)C4O)OC(CO)C(O)C3O)ccc2c1 (stereo not drawn) [Example 230c, Cyclo[glycyl-β-methylphenylalanyl-O-[4-O-[2-O-[(6-methoxy-2-naphthyl)methyl]hexopyranosyl]hexopyranosyl]tyrosyl-3-(2-iminoimidazolidin-4-yl)seryl-3-(3-hexopyranosyl-2-iminoimidazolidin-4-yl)serylseryl]]
Enterococcus sp.
  MIC Enterococcus avium (GC 4558): 128 mg/L (≈ 87.3 µM)
  MIC Enterococcus faecalis (ATCC 29212): >128 mg/L
  MIC Enterococcus faecalis (GC 2242): >128 mg/L
  MIC Enterococcus faecalis (GC 2691): >128 mg/L
  MIC Enterococcus faecalis (GC 3059): >128 mg/L
  MIC Enterococcus faecalis (GC 4552): >128 mg/L
  MIC Enterococcus faecalis (GC 4553): 128 mg/L (≈ 87.3 µM)
  MIC Enterococcus faecalis (GC 4554): >128 mg/L
  MIC Enterococcus faecalis (GC 6189): >128 mg/L
  MIC Enterococcus faecium (GC 2243): 128 mg/L (≈ 87.3 µM)
  MIC Enterococcus faecium (GC 4556): >128 mg/L
  MIC Enterococcus faecium (GC 4557): 32 mg/L (≈ 21.8 µM)
Enterococcus sp.; inoculum 5×10^5 CFU/mL, strain ATCC 29212
  MIC Enterococcus faecalis (ATCC 29212): >128 mg/L
Enterococcus sp.; inoculum 5×10^5 CFU/mL, strain GC 2242
  MIC Enterococcus faecalis (GC 2242): >128 mg/L
Enterococcus sp.; inoculum 5×10^5 CFU/mL, strain GC 2243
  MIC Enterococcus faecium (GC 2243): 128 mg/L (≈ 87.3 µM)
Enterococcus sp.; inoculum 5×10^5 CFU/mL, strain GC 2691
  MIC Enterococcus faecalis (GC 2691): >128 mg/L
Enterococcus sp.; inoculum 5×10^5 CFU/mL, strain GC 3059
  MIC Enterococcus faecalis (GC 3059): >128 mg/L
Enterococcus sp.; inoculum 5×10^5 CFU/mL, strain GC 4552
  MIC Enterococcus faecalis (GC 4552): >128 mg/L
Enterococcus sp.; inoculum 5×10^5 CFU/mL, strain GC 4553
  MIC Enterococcus faecalis (GC 4553): 128 mg/L (≈ 87.3 µM)
Enterococcus sp.; inoculum 5×10^5 CFU/mL, strain GC 4554
  MIC Enterococcus faecalis (GC 4554): >128 mg/L
Enterococcus sp.; inoculum 5×10^5 CFU/mL, strain GC 4556
  MIC Enterococcus faecium (GC 4556): >128 mg/L
Enterococcus sp.; inoculum 5×10^5 CFU/mL, strain GC 4557
  MIC Enterococcus faecium (GC 4557): 32 mg/L (≈ 21.8 µM)
Enterococcus sp.; inoculum 5×10^5 CFU/mL, strain GC 4558
  MIC Enterococcus avium (GC 4558): 128 mg/L (≈ 87.3 µM)
Enterococcus sp.; inoculum 5×10^5 CFU/mL, strain GC 6189
  MIC Enterococcus faecalis (GC 6189): >128 mg/L
Staphylococcus sp.
  MIC Coagulase Negative Staphylococcus (GC 4547): 64 mg/L (≈ 43.7 µM)
  MIC Coagulase Negative Staphylococcus (GC 4548): 64 mg/L (≈ 43.7 µM)
  MIC Coagulase Negative Staphylococcus (GC 4549): 64 mg/L (≈ 43.7 µM)
  MIC Coagulase Negative Staphylococcus (GC 4551): 64 mg/L (≈ 43.7 µM)
  MIC Coagulase Negative Staphylococcus (GC 6257): 32 mg/L (≈ 21.8 µM)
  MIC Staphylococcus aureus (ATCC 29213): 128 mg/L (≈ 87.3 µM)
  MIC Staphylococcus aureus (GC 1131): 128 mg/L (≈ 87.3 µM)
  MIC Staphylococcus aureus (GC 3051): 128 mg/L (≈ 87.3 µM)
  MIC Staphylococcus aureus (GC 3053): 128 mg/L (≈ 87.3 µM)
  MIC Staphylococcus aureus (GC 4541): 64 mg/L (≈ 43.7 µM)
  MIC Staphylococcus aureus (GC 4542): >128 mg/L
  MIC Staphylococcus aureus (GC 4544): 128 mg/L (≈ 87.3 µM)
  MIC Staphylococcus aureus (GC 4545): 128 mg/L (≈ 87.3 µM)
  MIC Staphylococcus aureus-SMITH (GC 4543): 64 mg/L (≈ 43.7 µM)
  MIC Staphylococcus haemolyticus (GC 4546): 64 mg/L (≈ 43.7 µM)
Staphylococcus sp.; strain ATCC 29213
  MIC Staphylococcus aureus (ATCC 29213): 128 mg/L (≈ 87.3 µM)
Staphylococcus sp.; strain GC 1131
  MIC Staphylococcus aureus (GC 1131): 128 mg/L (≈ 87.3 µM)
Staphylococcus sp.; strain GC 3051
  MIC Staphylococcus aureus (GC 3051): 128 mg/L (≈ 87.3 µM)
Staphylococcus sp.; strain GC 3053
  MIC Staphylococcus aureus (GC 3053): 128 mg/L (≈ 87.3 µM)
Staphylococcus sp.; strain GC 4541
  MIC Staphylococcus aureus (GC 4541): 64 mg/L (≈ 43.7 µM)
Staphylococcus sp.; strain GC 4542
  MIC Staphylococcus aureus (GC 4542): >128 mg/L
Staphylococcus sp.; strain GC 4543
  MIC Staphylococcus aureus-SMITH (GC 4543): 64 mg/L (≈ 43.7 µM)
Staphylococcus sp.; strain GC 4544
  MIC Staphylococcus aureus (GC 4544): 128 mg/L (≈ 87.3 µM)
Staphylococcus sp.; strain GC 4545
  MIC Staphylococcus aureus (GC 4545): 128 mg/L (≈ 87.3 µM)
Staphylococcus sp.; strain GC 4546
  MIC Staphylococcus haemolyticus (GC 4546): 64 mg/L (≈ 43.7 µM)
Staphylococcus sp.; strain GC 4547
  MIC Coagulase Negative Staphylococcus (GC 4547): 64 mg/L (≈ 43.7 µM)
Staphylococcus sp.; strain GC 4548
  MIC Coagulase Negative Staphylococcus (GC 4548): 64 mg/L (≈ 43.7 µM)
Staphylococcus sp.; strain GC 4549
  MIC Coagulase Negative Staphylococcus (GC 4549): 64 mg/L (≈ 43.7 µM)
Staphylococcus sp.; strain GC 4551
  MIC Coagulase Negative Staphylococcus (GC 4551): 64 mg/L (≈ 43.7 µM)
Staphylococcus sp.; strain GC 6257
  MIC Coagulase Negative Staphylococcus (GC 6257): 32 mg/L (≈ 21.8 µM)
Streptococcus sp.
  MIC Streptococcus agalactiae (GC 4564): 32 mg/L (≈ 21.8 µM)
  MIC Streptococcus pneumoniae (ATCC 6301): 32 mg/L (≈ 21.8 µM)
  MIC Streptococcus pneumoniae (GC 1894): 16 mg/L (≈ 10.9 µM)
  MIC Streptococcus pneumoniae (GC 4565): 32 mg/L (≈ 21.8 µM)
  MIC Streptococcus pyogenes (GC 4563): 64 mg/L (≈ 43.7 µM)
Streptococcus sp.; inoculum 5×10^5 CFU/mL, strain ATCC 6301
  MIC Streptococcus pneumoniae (ATCC 6301): 32 mg/L (≈ 21.8 µM)
Streptococcus sp.; inoculum 5×10^5 CFU/mL, strain GC 1894
  MIC Streptococcus pneumoniae (GC 1894): 16 mg/L (≈ 10.9 µM)
Streptococcus sp.; inoculum 5×10^5 CFU/mL, strain GC 4563
  MIC Streptococcus pyogenes (GC 4563): 64 mg/L (≈ 43.7 µM)
Streptococcus sp.; inoculum 5×10^5 CFU/mL, strain GC 4564
  MIC Streptococcus agalactiae (GC 4564): 32 mg/L (≈ 21.8 µM)
Streptococcus sp.; inoculum 5×10^5 CFU/mL, strain GC 4565
  MIC Streptococcus pneumoniae (GC 4565): 32 mg/L (≈ 21.8 µM)
Escherichia coli
  MIC Escherichia coli (ATCC 25922): >128 mg/L
  MIC Escherichia coli (GC 4559): >128 mg/L
  MIC Escherichia coli (GC 4560): 32 mg/L (≈ 21.8 µM)
